The values below come from publication PMC5218480 (PLoS ONE, 2017).

For the experiment, the system named is MV-4-11 cells. Kind of experiment: Gene expression microarray analysis (Affymetrix PrimeView) and GSEA. The format is cell-based, human. Also noted: RFU PODN (11730768_x_at) / Fold change /veh PODN (11730768_x_at) / RFU LINC00158 (11744669_a_at) / Fold change /veh LINC00158 (11744669_a_at) / RFU DUSP10 (11751237_a_at) / Fold change /veh DUSP10 (11751237_a_at) / RFU ID3 (11757404_x_at) / Fold change /veh ID3 (11757404_x_at) / RFU PLEKHG5 (11737974_s_at) / Fold change /veh PLEKHG5 (11737974_s_at) / RFU LRRC4B (11730491_at) / Fold change /veh LRRC4B (11730491_at) / RFU GIMAP4 (11747438_a_at) / Fold change /veh GIMAP4 (11747438_a_at) / RFU KRT8 (11758183_x_at) / Fold change /veh KRT8 (11758183_x_at) / RFU CNN1 (11734310_a_at) / Fold change /veh CNN1 (11734310_a_at) / RFU VPS37D (11726825_at) / Fold change /veh VPS37D (11726825_at) / RFU C10orf10 (11716522_x_at) / Fold change /veh C10orf10 (11716522_x_at) / RFU KIR2DL2 /// KIR2DL4 /// KIR2DL5A /// KIR2DL5B /// KIR2DS1 /// KIR2DS2 /// KIR2DS3 /// KIR2DS4 /// KIR3DL3 /// KIR3DL3 /// KIR3DS1 (11738374_at) / Fold change /veh KIR2DL2 /// KIR2DL4 /// KIR2DL5A /// KIR2DL5B /// KIR2DS1 /// KIR2DS2 /// KIR2DS3 /// KIR2DS4 /// KIR3DL3 /// KIR3DL3 /// KIR3DS1 (11738374_at) / RFU C1QL1 (11718748_at) / Fold change /veh C1QL1 (11718748_at) / RFU TMPRSS4 (11747572_a_at) / Fold change /veh TMPRSS4 (11747572_a_at) / RFU HAMP (11756126_x_at) / Fold change /veh HAMP (11756126_x_at) / RFU RNFT2 (11725882_a_at) / Fold change /veh RNFT2 (11725882_a_at) / RFU NR4A2 (11747474_a_at) / Fold change /veh NR4A2 (11747474_a_at) / RFU ABCC12 (11746883_a_at) / Fold change /veh ABCC12 (11746883_a_at) / RFU TMEM136 (11760407_x_at) / Fold change /veh TMEM136 (11760407_x_at) / RFU CLDN22 /// WWC2 (11732394_at) / Fold change /veh CLDN22 /// WWC2 (11732394_at) / RFU HLA-DPB1 (11760878_x_at) / Fold change /veh HLA-DPB1 (11760878_x_at) / RFU SPINT1 (11716480_a_at) / Fold change /veh SPINT1 (11716480_a_at) / RFU GAP43 (11754022_s_at) / Fold change /veh GAP43 (11754022_s_at) / RFU A4GNT (11735810_at) / Fold change /veh A4GNT (11735810_at) / RFU PRB3 (11715151_x_at) / Fold change /veh PRB3 (11715151_x_at) / RFU TUBB4B (11761932_at) / Fold change /veh TUBB4B (11761932_at) / RFU CAPN14 (11732068_a_at) / Fold change /veh CAPN14 (11732068_a_at) / RFU TMCC2 (11721928_a_at) / Fold change /veh TMCC2 (11721928_a_at) / RFU IRGQ (11745062_a_at) / Fold change /veh IRGQ (11745062_a_at) / RFU FAM174B (11720279_a_at) / Fold change /veh FAM174B (11720279_a_at) / RFU TMPRSS4 (11748680_a_at) / Fold change /veh TMPRSS4 (11748680_a_at) / RFU FAM212B (11763350_a_at) / Fold change /veh FAM212B (11763350_a_at) / RFU PLEKHG5 (11743358_a_at) / Fold change /veh PLEKHG5 (11743358_a_at) / RFU ZSCAN30 (11745921_a_at) / Fold change /veh ZSCAN30 (11745921_a_at) / RFU CMKLR1 (11741424_a_at) / Fold change /veh CMKLR1 (11741424_a_at) / RFU LOC101060620 /// MAPK8IP1 (11723275_at) / Fold change /veh LOC101060620 /// MAPK8IP1 (11723275_at) / RFU SPTSSB (11747773_x_at) / Fold change /veh SPTSSB (11747773_x_at) / RFU PRSS12 (11739890_at) / Fold change /veh PRSS12 (11739890_at) / RFU BIN1 (11741810_x_at) / Fold change /veh BIN1 (11741810_x_at) / RFU WNT11 (11732464_a_at) / Fold change /veh WNT11 (11732464_a_at) / RFU C10orf10 (11716521_a_at) / Fold change /veh C10orf10 (11716521_a_at) / RFU C5orf56 (11738089_at) / Fold change /veh C5orf56 (11738089_at) / RFU CYB561 (11721691_x_at) / Fold change /veh CYB561 (11721691_x_at) / RFU ANKRD19P (11752326_a_at) / Fold change /veh ANKRD19P (11752326_a_at) / RFU OR2T12 /// OR2T33 /// OR2T8 (11738714_s_at) / Fold change /veh OR2T12 /// OR2T33 /// OR2T8 (11738714_s_at) / RFU VCAN (11748164_a_at) / Fold change /veh VCAN (11748164_a_at) / RFU JSRP1 (11732532_at) / Fold change /veh JSRP1 (11732532_at) / RFU KRTAP10-11 (11738290_x_at) / Fold change /veh KRTAP10-11 (11738290_x_at) / RFU MYO3A (11730013_a_at) / Fold change /veh MYO3A (11730013_a_at) / RFU EBF3 (11725865_a_at) / Fold change /veh EBF3 (11725865_a_at) / RFU CAMK2N1 (11719241_x_at) / Fold change /veh CAMK2N1 (11719241_x_at) / RFU C5orf56 (11738088_a_at) / Fold change /veh C5orf56 (11738088_a_at) / RFU OLFML3 (11715873_a_at) / Fold change /veh OLFML3 (11715873_a_at) / RFU LOC100653217 /// NTM (11731650_a_at) / Fold change /veh LOC100653217 /// NTM (11731650_a_at) / RFU MAPK11 (11762145_a_at) / Fold change /veh MAPK11 (11762145_a_at) / RFU FIZ1 (11724087_x_at) / Fold change /veh FIZ1 (11724087_x_at) / RFU OASL (11726364_x_at) / Fold change /veh OASL (11726364_x_at) / RFU SOX15 (11748057_x_at) / Fold change /veh SOX15 (11748057_x_at) / RFU CD79A (11719716_a_at) / Fold change /veh CD79A (11719716_a_at) / RFU HIST1H1D (11736915_at) / Fold change /veh HIST1H1D (11736915_at) / RFU CASKIN2 (11723855_a_at) / Fold change /veh CASKIN2 (11723855_a_at) / RFU LOC730098 (11760151_x_at) / Fold change /veh LOC730098 (11760151_x_at) / RFU OR4N2 (11742367_at) / Fold change /veh OR4N2 (11742367_at) / RFU PRRT2 (11749266_a_at) / Fold change /veh PRRT2 (11749266_a_at) / RFU SNX32 (11753110_a_at) / Fold change /veh SNX32 (11753110_a_at) / RFU CDHR5 (11726645_a_at) / Fold change /veh CDHR5 (11726645_a_at) / RFU RCAN1 (11760418_a_at) / Fold change /veh RCAN1 (11760418_a_at) / RFU FAM167A (11723789_a_at) / Fold change /veh FAM167A (11723789_a_at) / RFU FAM26E (11764081_at) / Fold change /veh FAM26E (11764081_at) / RFU ISYNA1 (11749810_s_at) / Fold change /veh ISYNA1 (11749810_s_at) / RFU ACY1 (11761880_at) / Fold change /veh ACY1 (11761880_at) / RFU 11764098_at / Fold change /veh 11764098_at / RFU SAMD14 (11745864_x_at) / Fold change /veh SAMD14 (11745864_x_at) / RFU NPB (11741838_a_at) / Fold change /veh NPB (11741838_a_at) / RFU TMPRSS6 (11731388_a_at) / Fold change /veh TMPRSS6 (11731388_a_at) / RFU KRTAP10-2 (11738614_at) / Fold change /veh KRTAP10-2 (11738614_at) / RFU ARHGAP8 /// PRR5-ARHGAP8 (11727945_x_at) / Fold change /veh ARHGAP8 /// PRR5-ARHGAP8 (11727945_x_at) / RFU KRTAP5-7 /// NADSYN1 (11734609_at) / Fold change /veh KRTAP5-7 /// NADSYN1 (11734609_at) / RFU RASL12 (11751679_a_at) / Fold change /veh RASL12 (11751679_a_at) / RFU CDKN2B (11736163_a_at) / Fold change /veh CDKN2B (11736163_a_at) / RFU PRF1 (11729649_at) / Fold change /veh PRF1 (11729649_at) / RFU, ZNF638 /// ZNF638-IT1 / Fold change vs veh, ZNF638 /// ZNF638-IT1 / RFU, PANK3 / Fold change vs veh, PANK3 / RFU, SH3YL1 / Fold change vs veh, SH3YL1 / RFU, ZEB2 / Fold change vs veh, ZEB2 / RFU, NRIP1 / Fold change vs veh, NRIP1 / RFU, PTTG1IP / Fold change vs veh, PTTG1IP / RFU, CAPN2 / Fold change vs veh, CAPN2 / RFU, MED14 / Fold change vs veh, MED14 / RFU, SNORA58 / Fold change vs veh, SNORA58 / RFU, C1orf63 / Fold change vs veh, C1orf63 / RFU, LRRFIP1 / Fold change vs veh, LRRFIP1 / RFU, NDUFAF7 / Fold change vs veh, NDUFAF7 / RFU, SLC12A2 / Fold change vs veh, SLC12A2 / RFU, IBTK / Fold change vs veh, IBTK / RFU, ESF1 / Fold change vs veh, ESF1 / Fold change vs veh, TMEM50B / RFU, TAOK1 / Fold change vs veh, TAOK1 / RFU, ACBD3 / Fold change vs veh, ACBD3 / RFU, TMA16 / Fold change vs veh, TMA16 / RFU, RWDD3 / Fold change vs veh, RWDD3 / RFU, BCAT1 / Fold change vs veh, BCAT1 / RFU, EDEM3 / Fold change vs veh, EDEM3 / RFU, TMEM33 / Fold change vs veh, TMEM33 / RFU, WDR75 / Fold change vs veh, WDR75 / RFU, AHCTF1 / Fold change vs veh, AHCTF1 / RFU, TFRC / Fold change vs veh, TFRC / RFU, ZDHHC17 / Fold change vs veh, ZDHHC17 / RFU, NOM1 / Fold change vs veh, NOM1 / RFU, ARL8B / Fold change vs veh, ARL8B / RFU, ZBTB11 / Fold change vs veh, ZBTB11 / RFU, TAMM41 / Fold change vs veh, TAMM41 / RFU, KIAA1704 /// LOC100996395 / Fold change vs veh, KIAA1704 /// LOC100996395 / RFU, ING1 / Fold change vs veh, ING1 / RFU, TRMT61B / Fold change vs veh, TRMT61B / RFU, FUBP3 / Fold change vs veh, FUBP3 / RFU, TP53 / Fold change vs veh, TP53 / RFU, TNKS2 / Fold change vs veh, TNKS2 / RFU, ZFP14 / Fold change vs veh, ZFP14 / RFU, ACTR2 / Fold change vs veh, ACTR2 / RFU, PPP3R1 / Fold change vs veh, PPP3R1 / RFU, PIK3R1 / Fold change vs veh, PIK3R1 / RFU, HNRNPA1 / Fold change vs veh, HNRNPA1 / RFU, RNF170 / Fold change vs veh, RNF170 / RFU, ZNF28 / Fold change vs veh, ZNF28 / RFU, RNGTT / Fold change vs veh, RNGTT / RFU, OGT / Fold change vs veh, OGT / RFU, BRD1 / Fold change vs veh, BRD1 / RFU, MARS / Fold change vs veh, MARS / RFU, ZNF655 / Fold change vs veh, ZNF655 / RFU, FAHD1 / Fold change vs veh, FAHD1 / RFU, BDP1 / Fold change vs veh, BDP1 / RFU, LRRCC1 / Fold change vs veh, LRRCC1 / RFU, ARID1A / Fold change vs veh, ARID1A / RFU, ZNF146 / Fold change vs veh, ZNF146 / RFU, ZNF330 / Fold change vs veh, ZNF330 / RFU, GPN3 / Fold change vs veh, GPN3 / RFU, C9orf123 / Fold change vs veh, C9orf123 / RFU, N4BP2L2 / Fold change vs veh, N4BP2L2 / RFU, ARFIP1 / Fold change vs veh, ARFIP1 / RFU, FAM179B / Fold change vs veh, FAM179B / RFU, BCL10 / Fold change vs veh, BCL10 / RFU, UHRF1BP1L / Fold change vs veh, UHRF1BP1L / RFU, BET1 / Fold change vs veh, BET1 / RFU, CNOT2 / Fold change vs veh, CNOT2 / RFU, ZNF268 / Fold change vs veh, ZNF268 / Fold change vs veh, ZNF507 / RFU, DGCR2 / Fold change vs veh, DGCR2 / RFU, WDSUB1 / Fold change vs veh, WDSUB1 / Fold change vs veh, HSP90B1 /// MIR3652 / RFU, ADSS / Fold change vs veh, ADSS / RFU, GK / Fold change vs veh, GK / RFU, ZNF148 / Fold change vs veh, ZNF148 / RFU, TAF9 / Fold change vs veh, TAF9 / RFU, SLC1A5 / Fold change vs veh, SLC1A5 / RFU, SLMO2 / Fold change vs veh, SLMO2 / RFU, ABCC4 / Fold change vs veh, ABCC4 / RFU, LOC101060439 /// RAP1B / Fold change vs veh, LOC101060439 /// RAP1B / RFU, RFX7 / Fold change vs veh, RFX7 / RFU, GTPBP10 / Fold change vs veh, GTPBP10 / RFU, CNEP1R1 / Fold change vs veh, CNEP1R1 / RFU, BIVM-ERCC5 /// ERCC5 / Fold change vs veh, BIVM-ERCC5 /// ERCC5 / RFU, ILF3 / Fold change vs veh, ILF3 / RFU 11762660_at / Fold change /veh 11762660_at / RFU VCAN (11757783_s_at) / Fold change /veh VCAN (11757783_s_at) / RFU DDX43 (11728927_at) / Fold change /veh DDX43 (11728927_at) / RFU KRT8 (11758188_x_at) / Fold change /veh KRT8 (11758188_x_at) / RFU NKD1 (11759106_at) / Fold change /veh NKD1 (11759106_at) / RFU SRD5A1 (11742802_a_at) / Fold change /veh SRD5A1 (11742802_a_at) / RFU TPSAB1 /// TPSB2 (11721975_s_at) / Fold change /veh TPSAB1 /// TPSB2 (11721975_s_at) / RFU GSTM3 (11746129_a_at) / Fold change /veh GSTM3 (11746129_a_at) / RFU IL23R (11737362_x_at) / Fold change /veh IL23R (11737362_x_at) / RFU TMEM51 (11727254_a_at) / Fold change /veh TMEM51 (11727254_a_at) / RFU PIWIL2 (11732686_x_at) / Fold change /veh PIWIL2 (11732686_x_at) / RFU ORM1 (11744905_x_at) / Fold change /veh ORM1 (11744905_x_at) / RFU CCDC152 (11743942_at) / Fold change /veh CCDC152 (11743942_at) / RFU ECM1 (11717891_a_at) / Fold change /veh ECM1 (11717891_a_at) / RFU IL23R (11748794_a_at) / Fold change /veh IL23R (11748794_a_at) / RFU TNFAIP8L3 (11732012_x_at) / Fold change /veh TNFAIP8L3 (11732012_x_at) / RFU MBOAT4 (11741988_at) / Fold change /veh MBOAT4 (11741988_at) / RFU 11764193_at / Fold change /veh 11764193_at / RFU TMEM53 (11763286_at) / Fold change /veh TMEM53 (11763286_at) / RFU MAGEB2 (11727129_at) / Fold change /veh MAGEB2 (11727129_at) / RFU TMEM200A (11744735_a_at) / Fold change /veh TMEM200A (11744735_a_at) / RFU CCDC152 (11751479_a_at) / Fold change /veh CCDC152 (11751479_a_at) / RFU FAM211A (11726209_a_at) / Fold change /veh FAM211A (11726209_a_at) / RFU RGS16 (11746705_a_at) / Fold change /veh RGS16 (11746705_a_at) / RFU VCAN (11755009_s_at) / Fold change /veh VCAN (11755009_s_at) / RFU RHOB (11743442_s_at) / Fold change /veh RHOB (11743442_s_at) / RFU RGS16 (11720943_a_at) / Fold change /veh RGS16 (11720943_a_at) / RFU RGS16 (11720944_at) / Fold change /veh RGS16 (11720944_at) / RFU, VPS4B / Fold change vs veh, VPS4B / RFU, CREB1 / Fold change vs veh, CREB1 / RFU, DNAJC13 / Fold change vs veh, DNAJC13 / RFU, GNAQ / Fold change vs veh, GNAQ / RFU, CDK5R1 / Fold change vs veh, CDK5R1 / RFU, ZRANB3 / Fold change vs veh, ZRANB3 / RFU, CUL4A / Fold change vs veh, CUL4A / RFU, CCNY / Fold change vs veh, CCNY / RFU, UFL1 / Fold change vs veh, UFL1 / RFU, COG3 / Fold change vs veh, COG3 / RFU, DIAPH2 / Fold change vs veh, DIAPH2 / RFU, SKA2 / Fold change vs veh, SKA2 / RFU, AFF3 / Fold change vs veh, AFF3 / RFU, LMF1 / Fold change vs veh, LMF1 / RFU, IPO11 / Fold change vs veh, IPO11 / RFU, DFFB / Fold change vs veh, DFFB / RFU, FOXP1 / Fold change vs veh, FOXP1 / RFU, CARD8 / Fold change vs veh, CARD8 / RFU, STRN3 / Fold change vs veh, STRN3 / RFU, ADK / Fold change vs veh, ADK / RFU, RASSF2 / Fold change vs veh, RASSF2 / RFU, WIPF1 / Fold change vs veh, WIPF1 / RFU, LARP1B / Fold change vs veh, LARP1B / RFU, RASA1 / Fold change vs veh, RASA1 / RFU, RB1 / Fold change vs veh, RB1 / RFU, PPFIA1 / Fold change vs veh, PPFIA1 / RFU, MAT2A / Fold change vs veh, MAT2A / RFU, CCT5 / Fold change vs veh, CCT5 / RFU, WDR92 / Fold change vs veh, WDR92 / RFU, CUX1 / Fold change vs veh, CUX1 / RFU, TTC7A / Fold change vs veh, TTC7A / RFU, TMEM135 / Fold change vs veh, TMEM135 / RFU, DEPTOR / Fold change vs veh, DEPTOR / RFU, CPM / Fold change vs veh, CPM / RFU, DNAJB6 / Fold change vs veh, DNAJB6 / RFU, CACNA2D3 / Fold change vs veh, CACNA2D3 / RFU, DTX4 / Fold change vs veh, DTX4 / RFU, TFCP2 / Fold change vs veh, TFCP2 / RFU, GMCL1 /// GMCL1P1 / Fold change vs veh, GMCL1 /// GMCL1P1 / RFU, AEBP2 / Fold change vs veh, AEBP2 / RFU, SNHG1 /// SNORD22 /// SNORD25 /// SNORD26 /// SNORD27 /// SNORD28 /// SNORD29 /// SNORD31 / Fold change vs veh, SNHG1 /// SNORD22 /// SNORD25 /// SNORD26 /// SNORD27 /// SNORD28 /// SNORD29 /// SNORD31 / Fold change (Aza/veh), C12orf56 (ProbeSet 11735607_a_at) / Fold change (ACY-1035/veh), C12orf56 (ProbeSet 11735607_a_at) / Fold change (Aza/veh), FGFR1OP (ProbeSet 11751329_s_at) / Fold change (ACY-1035/veh), FGFR1OP (ProbeSet 11751329_s_at) / Fold change (Aza/veh), VPS36 (ProbeSet 11739960_a_at) / Fold change (ACY-1035/veh), VPS36 (ProbeSet 11739960_a_at) / RFU SYPL1 (11715823_x_at) / Fold change /veh SYPL1 (11715823_x_at) / RFU IGFBP7 (11715501_s_at) / Fold change /veh IGFBP7 (11715501_s_at) / RFU REEP3 (11722064_at) / Fold change /veh REEP3 (11722064_at) / RFU IGLL1 (11728026_x_at) / Fold change /veh IGLL1 (11728026_x_at): dose or concentration left out as unconfirmed. To be noted: ProbeSet 11743929_at; LIST B.

For the compound `Nc1ccc(-c2cccs2)cc1NC(=O)c1ccc2c(c1)cc(C1CC1)n2CCN1CCOCC1` [ACY-1035], the “RFU, UHRF1BP1L” value is 242.75 RFU.
